# Measured values taken from patent publication US20240108598A1, “Danegaptide for Use in the Treatment or Prevention of a Kidney Disease” (CIANA THERAPEUTICS APS, priority 2021, published 2024).
# What was measured:
# Type in all cases: cell-based, human
# primary hPTECs [1] = test: qPCR of cell cycle and reno-protective marker mRNA; conditions: TGFβ1 10 ng/mL alone, 12 h
# Protocol: Primary hPTECs were cultured in low (5 mM) glucose±TGFβ1 (10 ng/mL)±danegaptide (100 nM) for 12 h. […] Danegaptide (100 nM) negated the increase in p16, p21, cyclinD1 (▴▴▴P<0.001; mean±SEM, n=3) and partly reversed the TGFβ1-evoked change in Klotho.
# To determine if danegaptide can negate hemichannel-mediated regulation of common cell cycle and reno-protective markers, hPTECs were incubated with TGFβ1 (10 ng/mL)±danegaptide (100 nM) for 12 h and expression of candidate gene mRNA assessed through qPCR analysis.
# RNA was extracted using an RNeasy mini kit (QIAGEN) and reverse transcribed (Invitrogen). Real-time PCR (SYBR GreenER, Invitrogen) was performed using a StepOne Plus instrument (Applied Biosystems Inc, Foster City, CA). cDNA expression was obtained by comparing to a standard curve of serially-diluted cDNA. The following primers were used: p16 (forward: […], reverse: […]), p21 (forward: […], reverse: […]), cyclinD1 (forward: […], reverse: […]), Klotho (forward: […], reverse: […]). Melt curve analysis confirmed primer specificity and checked for potential contamination.
# primary hPTECs [2] = test: Inflammation antibody array, cell lysates (Table 1); conditions: hPTEC lysate; TGF-β1 10 ng/mL alone, 48 h
# From the text: An inflammation antibody array was used to assess regulation of 31 candidate inflammatory proteins in cell lysates from hPTEC cells treated with TGFβ1±danegaptide. Results are representative of 3 separate experiments and presented as mean±SEM, n=3 with key significances indicated (*P<0.05, **P<0.01, ***P<0.001; one-way ANOVA and Tukey's post-test).
# A proteome profiler array (Human Cytokine Array Kit from R&D Systems, Oxfordshire, UK) was used, to determine if danegaptide negates TGFβ1-induced changes in expression and secretion of key pro-inflammatory mediators. Primary hPTECs were cultured as described above and treated with TGFβ1 (10 ng/mL)±danegaptide (100 nM) for 48 h.
# primary hPTECs [3] = test: Western blotting of extracellular matrix proteins; conditions: TGFβ1 10 ng/mL alone, 48 h
# Protocol: Primary hPTECs were cultured in low (5 mM) glucose±TGFβ1 (10 ng/mL)±danegaptide (100 nM) for 48 h. In panel A, expression of the ECM proteins collagen I (Col1), collagen IV (Col4), fibronectin (Fibro), and Laminin (panel B) were assessed via western blotting. […] Danegaptide partially reversed the TGFβ1 evoked change in Integrin Linked Kinase 1 (ILK1; ▴▴▴P<0.001) but had negligible effect on Matrix Metalloproteinase 3 (MMP3). All bars correspond mean±SEM, (n=3) and representative blots are shown with expression normalised by re-probing for α-tubulin as a loading control.
# To determine if danegaptide can negate TGFβ1-mediated changes in adherens and tight junction proteins, hPTECs were incubated with TGFβ1 (10 ng/mL)±danegaptide (100 nM) for 48 h and expression of candidate proteins assessed by Western blotting. Preparation of cytosolic protein from HK2 and HPTEC cells, their separation by SDS-gel electrophoresis and transfer onto Immobilon-FI PVDF membranes have been described previously (Price, G. W.; Chadjichristos, C. E.; Kavvadas, P.; Tang, S. C. W.; Yiu, W. H.; Green, C. R.; Potter, J. A.; Siamantouras, E.; Squires, P. E.; Hills, C. E. Blocking Connexin-43 mediated hemichannel activity protects against early tubular injury in experimental chronic kidney disease. Cell Commun. Signal. 2020, 18). Membranes were blocked using Odyssey blocking buffer (LI-COR), then probed overnight with antibodies against E-cadherin (1:1000), N-cadherin (1:1000), claudin-2 (1:500) and ZO-1 (1:1000), Col I (1:1000), Col IV (1:2000), Fibronectin (1:4000), Laminin (1:500), ILK1 (1:500), beta-catenin (1:2000), Vimentin (1:500), MMP3 (1:500). Bands were visualised using an OdysseyFC and semi-quantified using ImageStudio (v5.2, LI-COR). Additionally, transepithelial electrical resistance (TER) was measured as a functional measure of epithelial cell-cell coupling and paracellular permeability.
# To examine the effect of danegaptide on TGFβ1-evoked changes in expression of ECM proteins, hPTEC cells were cultured in low (5 mM) glucose for 48 h, serum starved overnight and treated with TGFβ1 (10 ng/mL)±danegaptide (100 nM) for 48 h. Expression of the ECM proteins collagen I, collagen IV, fibronectin, Laminin, Integrin Linked Kinase 1, and Matrix Metalloproteinase 3 were assessed via western blotting.
substance,measurement,setting,value
TGFβ1: Recombinant hTGFβ1 (Sigma); pro-fibrotic cytokine used to stimulate the cells [reference compound],"Klotho mRNA expression, of control",primary hPTECs [1],43.3±3.8%
same,"cyclinD1 mRNA expression, of control",primary hPTECs [1],253.2±7.7%
same,"p16 mRNA expression, of control",primary hPTECs [1],358.8±21.1%
same,"p21 mRNA expression, of control",primary hPTECs [1],221.8±12.9%
same,Angiogenin in lysate (% compared to control),primary hPTECs [2],237 ± 36^ %
same,Cystatin C in lysate (% compared to control),primary hPTECs [2],182 ± 17.5%
same,DPPIV in lysate (% compared to control),primary hPTECs [2],315 ± 6.8%
same,ENA 78 in lysate (% compared to control),primary hPTECs [2],207 ± 21.6%
same,Endoglin in lysate (% compared to control),primary hPTECs [2],145 ± 24.9%
same,FGF7 in lysate (% compared to control),primary hPTECs [2],139 ± 5.6%
same,Flt 3 Ligand in lysate (% compared to control),primary hPTECs [2],212 ± 13.3%
same,G-CSF in lysate (% compared to control),primary hPTECs [2],201 ± 24.6%
same,GM-CSF in lysate (% compared to control),primary hPTECs [2],221 ± 11.1%
same,HGF in lysate (% compared to control),primary hPTECs [2],153 ± 17.0%
same,ICAM 1 in lysate (% compared to control),primary hPTECs [2],190 ± 13.6%
same,IFNg in lysate (% compared to control),primary hPTECs [2],206 ± 15.4%
same,IGFBP2 in lysate (% compared to control),primary hPTECs [2],519 ± 99.4%
same,IGFBP3 in lysate (% compared to control),primary hPTECs [2],394 ± 94.5%
same,IL1A in lysate (% compared to control),primary hPTECs [2],127 ± 26.4%
same,IL3 in lysate (% compared to control),primary hPTECs [2],176 ± 3.4%
same,IL8 in lysate (% compared to control),primary hPTECs [2],236 ± 9.4%
same,IL12 p70 in lysate (% compared to control),primary hPTECs [2],177 ± 31.0%
same,IL13 in lysate (% compared to control),primary hPTECs [2],269 ± 3.9%
same,Kallikrein 3 in lysate (% compared to control),primary hPTECs [2],76 ± 12.0%
same,LIF in lysate (% compared to control),primary hPTECs [2],328 ± 70.4%
same,MCP-1 in lysate (% compared to control),primary hPTECs [2],134 ± 30.2%
same,MMP9 in lysate (% compared to control),primary hPTECs [2],24 ± 3.1%
same,PDGF-AA/BB in lysate (% compared to control),primary hPTECs [2],247 ± 53.4%
same,RAGE in lysate (% compared to control),primary hPTECs [2],109 ± 23.8%
same,RANTES in lysate (% compared to control),primary hPTECs [2],235 ± 13.5%
same,Serpin E1 in lysate (% compared to control),primary hPTECs [2],186 ± 40.2%
same,TFF3 in lysate (% compared to control),primary hPTECs [2],204 ± 25.8%
same,TNF-α in lysate (% compared to control),primary hPTECs [2],192 ± 14.7%
same,Thrombospondin-1 in lysate (% compared to control),primary hPTECs [2],128 ± 37.5%
same,VEGF in lysate (% compared to control),primary hPTECs [2],203 ± 25.9%
same,"Integrin Linked Kinase 1 (ILK1) expression, compared to control",primary hPTECs [3],378.9±16.8%
same,"Matrix Metalloproteinase 3 (MMP3) expression, compared to control",primary hPTECs [3],185.3±19.6%
same,"collagen I expression, compared to control",primary hPTECs [3],334.6±30.14%
same,"collagen IV expression, compared to control",primary hPTECs [3],354.5±16.9%
same,"fibronectin expression, compared to control",primary hPTECs [3],301.7±50.4%
same,"laminin expression, compared to control",primary hPTECs [3],324.8±36.4%
